Each compound was assayed against T1, human DP2 receptor (Homo sapiens, UniProt Q9Y5Y4) (assay: DP2/CRTH2 radioligand binding assay using [3H]PGD2). Details: membranes of HEK293 cells stably expressing recombinant human DP2; 1 nM [3H]PGD2; read-out: hDP2 IC50.
T1 construct: expressed in transfected cells; membranes prepared from them
T1 sequence (Q9Y5Y4 1-395): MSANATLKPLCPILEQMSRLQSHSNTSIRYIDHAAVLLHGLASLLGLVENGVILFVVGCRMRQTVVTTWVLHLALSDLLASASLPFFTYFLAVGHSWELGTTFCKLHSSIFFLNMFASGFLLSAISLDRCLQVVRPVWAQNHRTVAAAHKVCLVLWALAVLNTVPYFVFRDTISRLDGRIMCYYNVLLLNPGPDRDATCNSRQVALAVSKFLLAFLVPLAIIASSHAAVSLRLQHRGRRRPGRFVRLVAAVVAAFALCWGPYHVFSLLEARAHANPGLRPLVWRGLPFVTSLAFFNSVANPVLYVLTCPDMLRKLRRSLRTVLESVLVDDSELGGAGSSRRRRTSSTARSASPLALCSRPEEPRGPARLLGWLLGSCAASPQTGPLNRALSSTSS
Procedure: The ability of a compound to bind to the human DP2 receptor is assessed via a radioligand binding assay using [^3H]PGD2. HEK293 cells stably expressing recombinant human DP2 are resuspended in 10 mM Hepes, 7.4 containing 1 mM DTT, lysed and centrifuged at 75,000×g to pellet the membranes. The membranes are resuspended in 10 mM Hepes, 7.4 containing 1 mM DTT and 10% glycerol to approximately 5 mg protein/ml. Membranes (2-10 μg protein/well) are incubated in 96-well plates with 1 nM [^3H]PGD2 and test compound in Assay Buffer (50 mM Hepes, 10 mM MnCl2, 1 mM EDTA, plus or minus 0.2% human serum albumin, pH 7.4) for 60 minutes at room temperature. The reactions are terminated by rapid filtration through Whatman GF/C glass fibre filter plates. The filter plates were pre-soaked in 0.33% polythylenimine for 30 minutes at room temperature then washed in Wash Buffer (50 mM Hepes, 0.5 M NaCl pH 7.4) prior to harvesting. After harvesting, the filter plates are washed 3 times with 1 ml cold Wash Buffer then dried. Scintillant is then added to the plates and the radioactivity retained on the filters is determined on a Packard TopCount (Perkin Elmer). Specific binding is determined as total radioactive binding minus non-specific binding in the presence of 10 μM PGD2. IC50s were determined using GraphPad prism analysis of drug titration curves.

IC50, 1 to 10 µM:
COc1ccc(CC(=O)O)cc1-c1ccc(C(F)(F)F)cc1CS(=O)(=O)Cc1ccccc1 [Compound 1-12, (6-Methoxy-2′-phenylmethanesulfonylmethyl-4′-trifluoromethyl-biphenyl-3-yl)-acetic acid]
COc1ccc(CC(=O)O)cc1-c1ccc(C(F)(F)F)cc1CSC(C)(C)C [Compound 1-3, (2′-tert-Butylsulfanylmethyl-6-methoxy-4′-trifluoromethyl-biphenyl-3-yl)-acetic acid]
COc1ccc(CC(=O)O)cc1-c1ccc(C(F)(F)F)cc1CS(=O)(=O)c1nnc(C)s1 [Compound 1-14, [6-Methoxy-2′-(5-methyl-[1,3,4]thiadiazole-2-sulfonylmethyl)-4′-trifluoromethyl-biphenyl-3-yl]-acetic acid]
COc1ccc(CC(=O)O)cc1-c1ccc(C(F)(F)F)cc1CS(=O)(=O)c1ccccc1 [Compound 1-11, (2′-Benzenesulfonylmethyl-6-methoxy-4′-trifluoromethyl-biphenyl-3-yl)-acetic acid]
COc1ccc(CC(=O)O)cc1-c1ccc(C(F)(F)F)cc1COc1ccccc1 [Compound 1-6, (6-Methoxy-2′-phenoxymethyl-4′-trifluoromethyl-biphenyl-3-yl)-acetic acid]
COc1ccc(CC(=O)O)cc1-c1ccc(C(F)(F)F)cc1CSCC(F)(F)F [Compound 1-5, [6-Methoxy-2′-(2,2,2-trifluoro-ethylsulfanylmethyl)-4′-trifluoromethyl-biphenyl-3-yl]-acetic acid]
CCN(Cc1ccccc1)C(=O)OCc1cc(C(F)(F)F)ccc1-c1cc(CC(=O)O)ccc1OC [Compound 1-15, {2′-[(Benzyl-ethyl-carbamoyloxy)-methyl]-6-methoxy-4′-trifluoromethyl-biphenyl-3-yl}-acetic acid]

IC50, < 1 µM:
COc1ccc(CC(=O)O)cc1-c1ccc(C(F)(F)F)cc1CSc1ccccc1 [Compound 1-1, (6-Methoxy-2′-phenylsulfanylmethyl-4′-trifluoromethyl-biphenyl-3-yl)-acetic acid]
COc1ccc(CC(=O)O)cc1-c1ccc(C(F)(F)F)cc1CSCc1ccccc1 [Compound 1-2, (2′-Benzylsulfanylmethyl-6-methoxy-4′-trifluoromethyl-biphenyl-3-yl)-acetic acid]
CCN(Cc1ccccc1)C(=O)OCc1cc(C(F)(F)F)ccc1-c1cc(CC(=O)O)ccc1F [Compound 1-16, {2′-[(Benzyl-ethyl-carbamoyloxy)-methyl]-6-fluoro-4′-trifluoromethyl-biphenyl-3-yl}-acetic acid]
O=C(O)CCn1c2c(c3ccccc31)C[C@H](NS(=O)(=O)c1ccc(F)cc1)CC2 [Ramatroban, reference compound]
COc1ccc(CC(=O)O)cc1-c1ccc(C(F)(F)F)cc1CSc1nnc(C)s1 [Compound 1-4, [6-Methoxy-2′-(5-methyl-[1,3,4]thiadiazol-2-ylsulfanylmethyl)-4′-trifluoromethyl-biphenyl-3-yl]-acetic acid]

IC50, > 10 µM:
COc1ccc(CC(=O)O)cc1-c1ccc(C(F)(F)F)cc1C[S+]([O-])C(C)(C)C (centres unmarked) [Compound 1-9, [6-Methoxy-2′-(2-methyl-propane-2-sulfinylmethyl)-4′-trifluoromethyl-biphenyl-3-yl]-acetic acid]
COc1ccc(CC(=O)O)cc1-c1ccc(C(F)(F)F)cc1C[S+]([O-])c1ccccc1 (centres unmarked) [Compound 1-7, (2′-Benzenesulfinylmethyl-6-methoxy-4′-trifluoromethyl-biphenyl-3-yl)-acetic acid]
COc1ccc(CC(=O)O)cc1-c1ccc(C(F)(F)F)cc1CS(=O)(=O)C(C)(C)C [Compound 1-13, [6-Methoxy-2′-(2-methyl-propane-2-sulfonylmethyl)-4′-trifluoromethyl-biphenyl-3-yl]-acetic acid]
COc1ccc(CC(=O)O)cc1-c1ccc(C(F)(F)F)cc1C[S+]([O-])c1nnc(C)s1 (centres unmarked) [Compound 1-10, [6-Methoxy-2′-(5-methyl-[1,3,4]thiadiazole-2-sulfinylmethyl)-4′-trifluoromethyl-biphenyl-3-yl]-acetic acid]
COc1ccc(CC(=O)O)cc1-c1ccc(C(F)(F)F)cc1C[S+]([O-])Cc1ccccc1 (centres unmarked) [Compound 1-8, (6-Methoxy-2′-phenylmethanesulfinylmethyl-4′-trifluoromethyl-biphenyl-3-yl)-acetic acid]
